# Values of other authors, collected in US20250144159A1, “COMPOSITION COMPRISING A MIXTURE OF DHA AND/OR EPA AND A PHOSPHOLIPID OF PLANT ORIGIN” (POLARIS, priority 2022, published 2025).
# Conditions: oral intake; compared with DHA in triglyceride (TG) form
row,Compound,cerebral capture of DHA
1,CCC=CCC=CCC=CCC=CCC=CCC=CCCC(=O)OC(COC(C)=O)COP(=O)([O-])OCC[N+](C)(C)C (centres unmarked) [AceDoPC],improves
2,CC/C=C\C/C=C\C/C=C\C/C=C\C/C=C\C/C=C\CCC(=O)OC(CO)COP(=O)([O-])OCC[N+](C)(C)C (centres unmarked) [lysoPC-DHA],improves
